Results from BigSolDB 2.1.

Sc1nc2ccccc2[nH]1
solubility (mole fraction)
Details	278.15 K	283.15 K	288.15 K	293.15 K	298.15 K	303.15 K	308.15 K	313.15 K	318.15 K
in 1,4-dioxane	0.0141	0.0153	0.0166	0.0181	0.0195	0.021	0.0227	0.0246	0.0265
in 2-butanone	0.0103	0.011	0.0117	0.0124	0.0133	0.0141	0.0151	0.0162	0.0172
in acetone	0.0121	0.0128	0.0135	0.0143	0.0152	0.016	0.0169	0.0179	0.0189
in acetonitrile	0.00102	0.00115	0.00129	0.00146	0.00163	0.00183	0.00205	0.00228	0.00257
in cyclohexane	4.36e-06	5.51e-06	7.05e-06	8.99e-06	1.16e-05	1.49e-05	1.88e-05	2.27e-05	2.81e-05
in ethanol	0.00532	0.00634	0.00746	0.00868	0.00998	0.0114	0.0126	0.0142	0.0158
in ethyl acetate	0.00198	0.00236	0.00275	0.00318	0.00366	0.00413	0.00463	0.00518	0.00577
in isopropanol	0.0034	0.00435	0.00528	0.00635	0.00755	0.0088	0.0102	0.0116	0.0132
in methanol	0.00625	0.0073	0.00848	0.00964	0.0109	0.0123	0.0138	0.0152	0.0169
in n-butanol	0.0041	0.0049	0.0058	0.0069	0.00809	0.00941	0.0109	0.0125	0.0144
in n-propanol	0.00484	0.00559	0.0065	0.00759	0.00872	0.00999	0.0114	0.0131	0.0151
in toluene	2.01e-05	2.73e-05	3.51e-05	4.35e-05	5.3e-05	6.38e-05	7.53e-05	8.87e-05	0.000104
